The record followed here is a melting point compilation (Tetko et al.; mined from patent text by program, amines drawn as free bases though some values may be those of a salt).

The structures appear in SMILES notation. Bounds are passed on as bounds.

As usually defined, the melting point is the temperature of the solid-liquid transition. For the molecule `CN1CCN(C2=Nc3cc(Cl)ccc3N3CCc4cccc2c43)CC1`, the melting point was 154 to 156 °C. Regarding `O=S(=O)(Nc1c(F)c(F)nc(F)c1F)C(F)(F)F`, the melting point lay within 69 to 70 °C. In turn, `COC(=O)c1ccc(C(O)COc2ccc3c(c2)C(C)(C)CCC3(C)C)cc1` (centres undefined) yielded a melting point of 92 to 96 °C. `CCc1noc(-c2ncn(-c3cccc(Oc4ccc([N+](=O)[O-])cc4)c3)c2COC)n1` had a melting point of 126 to 127 °C.

In turn, `Cc1cc(C)cc(C(=O)N2CCN(C(=O)CNC3CN4CC3CC4Cc3ccccc3)C(c3ccc(Cl)c(Cl)c3)C2)c1` (centres undefined) showed a melting point of 69 to 71 °C. Under `COC(=O)C=Cc1ccc2c(c1)cc(C)n2S(=O)(=O)c1ccccc1` stands 126 to 128 °C; under `C(=C\c1nc(COc2ccc(CCn3ccnc3)cc2)co1)/c1ccccc1`, 165 to 166 °C; under `CC(C)C(NC(=O)OC(C)(C)C)C(=O)NC(C(=O)OCC1OC(n2cc(C=CBr)c(=O)[nH]c2=O)CC1Cl)C(C)C` (centres undefined), 102 to 103 °C. `CC(C)N1OCCC(=Cc2cc(C(C)(C)C)c(O)c(C(C)(C)C)c2)C1=O` returned a melting point of 181 to 183 °C. On to `CC1=CC(O)C(OC(=O)C=Cc2ccc(N)cc2)C(C)(C)CC1=O` (centres undefined), for which the melting point is 49 to 50 °C.

Consider `COC(=O)C=C1CN=C(c2ccccc2)c2cc(Cl)ccc2N1`, for which the melting point fell in the range of 167 to 170 °C. Turning to `CCCn1cc(-c2nc(C(N)=O)c(N)nc2-c2ccccc2)ccc1=O`, the melting point was greater than 250 °C.

Take `CN(C)c1c(F)c(F)c(F)c2c1c(=O)c(C(=O)O)cn2C1COC1`: the melting point was in the range of 173 to 175 °C. In turn, `Fc1ccc2c(C3CCC4(CC3)OCCO4)c[nH]c2c1` showed a melting point of 158 to 159 °C.

Molecule `Clc1ccc(-c2cc(CCC3CCCNC3)c3ccccc3n2)cc1` (centres undefined) showed a melting point of 155 °C. For `O=C1Cc2ccc(-c3cnc4[nH]c(=O)n(CC5CCCCC5)c4n3)cc2N1`, the melting point is 334 to 336 °C.

As to `OCCCc1cncn1Cc1noc2ccccc12`, the melting point fell in the range of 129 to 131 °C. For the molecule `COC(=O)c1ccc2c(c1)Sc1ccccc1N=C2N1CCOCC1`, the melting point was 114 to 115 °C.

The molecule `Fc1cccc(C2OC3(CCNCC3)N3CCCCC23)c1` (centres undefined) came in with a melting point of 133 to 135 °C. Molecule `CCc1cccc(CC(=O)O)c1OCCCc1cn(-c2ccc(C(F)(F)F)cn2)nc1C(C)(C)C` showed a melting point of 98 to 99 °C. `COc1cc2cc(CO)c(CO)c(-c3cccc(-n4c(=O)ccc5ccccc54)n3)c2cc1OC` yielded a melting point of 142 to 143 °C. In turn, `FC(F)(F)c1cccc(CO[C@H]2CO[C@@H](c3ccccc3)OC2)c1` had a melting point of 115 to 116 °C. Under `COc1ccc(C(=O)c2c(C)oc3ccc([N+](=O)[O-])cc23)cc1` stands 167 °C. The molecule `Cc1c(C(=O)Nc2ccc(N3CCC(N4CCOCC4)CC3)c(C#N)c2)cnn1-c1ccc(F)c(Cl)c1` had a melting point of 266 °C.

In turn, `CCC(C)(C)c1ccc(Oc2ccncc2NC(=O)c2ccccc2)c(C(C)(C)CC)c1` registered a melting point of 253 °C. Next, `CCc1ccc(S(N)(=O)=O)cc1`: 104 to 108 °C. `COc1ccc2c(n1)C1(CO2)C(=O)N(Cc2ccc(C(F)(F)F)o2)c2ccc(F)cc21` (centres undefined) gave a melting point of 158 to 160 °C.

`CC(C)c1nc(N(C)S(C)(=O)=O)nc(-c2ccc(F)cc2)c1Br` yielded a melting point of 122 to 125 °C.

With `Cn1cc(C(=O)O)cc1Cl`, the melting point was 201 to 203 °C. In turn, `CC1(C)Oc2ccc(C#N)cc2[C@@H](NC(=O)Nc2ccc3c(c2)CN(C(=O)OCC(Cl)(Cl)Cl)C3)[C@@H]1O` returned a melting point of 201 to 203 °C. Under `Cc1cc(N)c([N+](=O)[O-])cc1OS(C)(=O)=O` stands 128 °C. Turning to `Cc1nccn1-c1ccc(O)cc1`, the melting point was 205 to 208 °C.

For the molecule `CCOc1cc(Cc2cnc(N)nc2N)cc2c1OC(C)(C)C=C2c1ccc(OC)c(OC)c1`, the melting point is 191 to 192 °C. Under `COc1ccc(/C=C/C#N)cc1OC` stands 93 to 98 °C.
